# Data as given in patent US20240207421A1, “NERVE TARGETING PEPTIDES AND METHODS OF USE” (ALUME BIOSCIENCES, INC., priority 2020, published 2024).
# Test system: Laminin 421/521
# Assay: Phage display library screening (Example 2), NEB laminin-binding peptides
# Parameters: species or system human
# Settings: Laminin 421/521, not 211 and 411; combined unique sequence count, Python/R script analysis
# Procedure: Phage display library screens were used to identify peptides that bind to target proteins (including specific laminin trimers) that are expressed in human nerves, as described in Table 3. These screens were also carried out to identify peptides that could bind selectively to nerves versus muscle. Such peptides could therefore be useful for systemic in-vivo labeling of nerves during fluorescence assisted surgery. Specifically, m 13 phage libraries expressing 7 or 12 random amino acid peptides, or a cyclic peptide CX7C, on the N-terminus of the minor coat protein pIII (New England Biolabs; NEB) were processed through multiple rounds of selection for binding to target proteins expressed in nerves, or to excised human nerves, nerve extracts, or muscle, as described further below.
# For screening against the specified target proteins in Table 1, including LN211, LN411, LN421, and LN521, the phage library was processed by up to 4 binding and wash cycles. For selection, phage libraries were incubated for up to 24 hours at 4° C. in 96 well plates that had been coated with one of the target proteins. Plates were then washed with PBS and phage were eluted using 0.2M glycine pH 2.0. Phage supernatants where then neutralized with Tris pH 9.0 prior to plating on TGI bacteria and LB agar plates. Colonies were counted to determine titer followed by DNA preparation of pools of phage and NextGen sequencing. After rounds of selection, phage were pooled and amplified for iterative selection. Phage that were bound at each round were sequenced. NextGen sequencing of pools after 2, 3 and 4 rounds of selection was used to isolate candidate sequences that were analyzed further to identify those that specifically bound each unique target protein.
# For all NEB sequence datasets, a python script was used to translate, trim, and filter the peptide sequences (see details above). A python script was used to group peptides from different assays according to laminin complex binding (laminin complex 211, 411, 421, or 521) and combine the unique sequence counts for each peptide. An R script was written to merge the peptide sequences from different data files and determine peptides that specifically bind one laminin complex and not the others, or that bind both laminin 421 and 521 but not 211 and 411.
row,Substance,Count
1,AGAYTSRHAFDE (Laminin 421/521-binding peptide),39
2,EAVSTQI (Laminin 421/521-binding peptide),27
3,AHAAGRDMRQGT (Laminin 421/521-binding peptide),36
4,GWTSDLSRNVRG (Laminin 421/521-binding peptide),28
5,GYRSFIHENWSI (Laminin 421/521-binding peptide),68
6,TALSHRHEAMRW (Laminin 421/521-binding peptide),28
7,ALKIGPETTIYM (Laminin 421/521-binding peptide),35
8,QTFGYSMFNVRT (Laminin 421/521-binding peptide),30
9,HSTYAPG (Laminin 421/521-binding peptide),33
10,AVYPLDLGAGMR (Laminin 421/521-binding peptide),46
11,APKVTNARPTQL (Laminin 421/521-binding peptide),147
12,QGHPFIY (Laminin 421/521-binding peptide),40
13,CTSSSHQTC (Laminin 421/521-binding peptide),28
14,EYVKFSHSPRTY (Laminin 421/521-binding peptide),31
15,KALGYSLVGGEW (Laminin 421/521-binding peptide),134
16,HSFLGAR (Laminin 421/521-binding peptide),44
17,CKSERGPEC (Laminin 421/521-binding peptide),30
18,CTGETLLTC (Laminin 421/521-binding peptide),28
19,CSRAGLSAC (Laminin 421/521-binding peptide),30
20,CWSGNSRSC (Laminin 421/521-binding peptide),42
21,RAQAHQV (Laminin 421/521-binding peptide),51
22,NDTGRHASGISK (Laminin 421/521-binding peptide),32

row,Substance,Count
1,SGWEGKTHQGVR (Laminin 421/521-binding peptide),69
2,GDLLLKR (Laminin 421/521-binding peptide),47
3,CSVWNSGNC (Laminin 421/521-binding peptide),43
4,TVARSTAQERSI (Laminin 421/521-binding peptide),28
5,CSKHNHSRC (Laminin 421/521-binding peptide),295
6,CTDGRNFVC (Laminin 421/521-binding peptide),28
7,EYWHQRGSWFHR (Laminin 421/521-binding peptide),55
8,GSTTHPHFGLPG (Laminin 421/521-binding peptide),40
9,SVLSTGTANQRH (Laminin 421/521-binding peptide),28
10,GHRTLVTSERYL (Laminin 421/521-binding peptide),38
11,WSPANGWRHQTI (Laminin 421/521-binding peptide),36
12,CVLKCEDQKYRG (Laminin 421/521-binding peptide),27
13,CGLATNKSC (Laminin 421/521-binding peptide),39
14,FPLKIRT (Laminin 421/521-binding peptide),42
15,WAFKAPQ (Laminin 421/521-binding peptide),61
16,DRMYSTVPAEGL (Laminin 421/521-binding peptide),27
17,NWTHLGVARLQP (Laminin 421/521-binding peptide),36
18,CQTSGHHQC (Laminin 421/521-binding peptide),31
19,AQNLRVHAWASL (Laminin 421/521-binding peptide),28
20,GDAQILM (Laminin 421/521-binding peptide),38
21,SYTATWSEMSRS (Laminin 421/521-binding peptide),28
22,KISMNRLHANFT (Laminin 421/521-binding peptide),110
